According to US10982337B2, “Corrosion inhibition” (SCHLUMBERGER TECHNOLOGY CORPORATION, priority 2015, dated 2021):

Key:
[1] = Corrosion weight loss test on steel coupons in HCl; design: Pitting Index: scale not given here
Description: (§1) Such “acceptable” levels of corrosion are application-specific.

[2] = Corrosion weight loss test on steel coupons in HCl; design: Pitting Index: scale not given here; remark: listed apart in the source
Description: as §1

[3] = Corrosion weight loss test on steel coupons in HCl; design: Pitting Index: scale not given here; remark: listed apart in the source
Description: as §1

[4] = Rotating Cylinder Electrode electrochemistry, charge transfer resistance; settings: 5 mM inhibitor, 10 mM KI, 4 mol/L HCl, 2000 rpm, 80° C.; FIG. 6
Description: (§2) EIS can be used to monitor the corrosion rate of a system. The parameter of interest is the charge transfer resistance, Rct, which can be thought of the ‘resistance’ to corrosion. A metal test piece is used as the working electrode in a three-electrode electrochemical cell with the corrosive solution as electrolyte. Impedance data is obtained by applying a small alternating voltage to the working electrode and measuring the resulting current to obtain a value of impedance. This is done at a range of frequencies. Then, in order to extract the parameter of interest, the metal/inhibitor/electrolyte interfaces are modelled as an electrical equivalent circuit and the theoretical impedance is fitted to the data. […] Charge transfer resistance, Rct, is measured. Charge transfer resistance, Rct is a measure for corrosion resistance, and is inversely proportional to corrosion rate (CR). Therefore 1/Rct is proportional to CR.

[5] = as above; settings: 5 mM inhibitor, 10 mM KI, 4 mol/L HCl, 2000 rpm, 80° C.; FIG. 6; remark: listed apart in the source
Description: as §2

[6] = as above; settings: 5 mM inhibitor, 10 mM KI, 4 mol/L HCl, 2000 rpm, 80° C.; FIG. 6; remark: listed apart in the source
Description: as §2

[7] = as above; settings: 5 mM inhibitor, 10 mM KI, 4 mol/L HCl, 2000 rpm, 80° C.; FIG. 6; remark: listed apart in the source
Description: as §2

[8] = Marine algal growth inhibition test ISO 10253; type: cell-based, Skeletonema costatum; settings: Skeletonema costatum, cultures of the marine alga Skeletonema costatum; algal growth inhibition, 72 h, WAF in sea water, 10-1000 mg/L tested
Method: (§3) The acute toxicity of NMHQ to the marine algae Skeletonema costatum was tested. Cultures of the algae Skeletonema costatum were exposed to a series of concentrations of NMHQ. The test was carried out according to ISO protocol ‘ISO 10253 Water quality—Marine algal growth inhibition test with Skeletonema costatum and Phaeodactylum tricornutum’.
(§4) In addition to blank, concentrations of 10, 100, 1000 mg/L (WAF) in sea water were tested.

Skeletonema costatum = test: Marine algal growth inhibition test ISO 10253; type: cell-based
Method: as §3, §4

[9] = Corrosion weight loss test on steel coupons in HCl
Method: Experiments were carried out with coupons of the following steels: • 22Cr125 also designated 2205, a duplex alloy steel which is an iron-chromium-nickel-molybdenum alloy, used (among other things) to fabricate casing. • HS80™ (TradeMark of TENARIS), a low carbon steel used to fabricate coiled tubing. • N80, a medium carbon steel used to fabricate borehole casing. • 13Cr80, an alloy steel containing 13 wt % chromium without nickel, also used to fabricate borehole casing.
(1) Metal Type: Duplex Stainless Steel 22Cr125 Casing (2205 b6); 4 mol/L HCl, T=80° C., 3 Hours Exposure

[10] = 0.3000 wt % (10.97 mmol/L), 4 mol/L HCl, 80° C., 3 hours

In the case of `c1ccc2c(c1)CCCN2Cc1cccc2ccccc12` [NMTHQ], the “Pitting Index” value ([1]; 0.1368 wt % (5.00 mmol/L), no KI, 4 mol/L HCl, 80° C., 3 hours) is reported as 3, the “Pitting Index” value ([1]; 0.1389 wt % (5.08 mmol/L) + KI 10 mmol/L) is reported as 0 and the “Pitting Index” value ([1]; 0.2065 wt % (7.55 mmol/L), 4 mol/L HCl, 80° C., 3 hours) is reported as 2. For the same molecule, the “Pitting Index” value [1, 10] was 0, the “Pitting Index” value ([1]; 0.3013 wt % (11.02 mmol/L), 4 mol/L HCl, 80° C., 3 hours) was 0 and the “Pitting Index” value ([1]; 0.3017 wt % (11.04 mmol/L), 4 mol/L HCl, 80° C., 3 hours) was 0. The “factor by which addition of 10 mM potassium iodide reduces the weight loss” value ([1]; N80, NMTHQ 4.0-5.1 mmol/L) was 5.3, the “Pitting Index” value ([2]; 0.0055 wt % (0.20 mmol/L), 4 mol/L HCl, 80° C., 3 hours) was 5 and the “Pitting Index” value ([2]; 0.0273 wt % (1.00 mmol/L), 4 mol/L HCl, 80° C., 3 hours) was 2. For the same molecule, the “Pitting Index” value ([2]; 0.11 wt % (4.02 mmol/L), 4 mol/L HCl, 80° C., 3 hours) was 0, the “Pitting Index” value ([2]; 0.1366 wt % (5.00 mmol/L) + KI 10 mmol/L) was 0 and the “Pitting Index” value ([2]; 0.1366 wt % (5.00 mmol/L), no KI, 4 mol/L HCl, 80° C., 3 hours) was 0. For the same molecule, the “Pitting Index” value ([2]; 0.192 wt % (7.02 mmol/L), 4 mol/L HCl, 80° C., 3 hours) was 0, the “factor by which addition of 10 mM potassium iodide reduces the weight loss” value ([2]; HS80, NMTHQ 4.0-5.1 mmol/L) was 8.8 and the “Pitting Index” value ([3]; 0.1367 wt % (5.00 mmol/L), no KI, 4 mol/L HCl, 80° C., 3 hours) was 4. For the same molecule, the “Pitting Index” value ([3]; 0.1382 wt % (5.06 mmol/L) + KI 10 mmol/L) was 0, the “Pitting Index” value [3, 10] was 0 and the “inhibition performance compared at equivalent molar concentrations (in words)” value ([3]; 13Cr80, 4 mol/L HCl, 80° C., 3 hours) was “superior to the known acid corrosion inhibitor, NMQCl”. The “factor by which addition of 10 mM potassium iodide reduces the weight loss” value ([3]; 13Cr80, NMTHQ 4.0-5.1 mmol/L) was 10.5, the “1/Rct (proportional to corrosion rate), NMHQ compared with NMQCl” value (“1/Rct … compared with NMQCl” below) [4] was “very similar results” and the “1/Rct … compared with NMQCl” value [5] was “very similar results”. For the same molecule, the “1/Rct … compared with NMQCl” value [6] was “more effective inhibitor”, the “1/Rct … compared with NMQCl” value [7] was “significant lower” and the EC50 at 72 h [8] was over 1000 µg/mL. For the same molecule, the EC90 at 72 h [8] was over 1000 µg/mL, the “NOEC(72 h)” value (Skeletonema costatum; algal growth inhibition, 72 h, WAF in sea water, 10-1000 mg/L tested) was 1000 mg/L and the “aquatic toxicity (in words)” value (Skeletonema costatum; seawater under neutral conditions (pH 7.7-8.3)) was “zero aquatic toxicity”. The “Pitting Index” value ([9]; 0.11 wt % (4.02 mmol/L) + KI 10 mmol/L, 2205 (b6)) was 0, the “Pitting Index” value ([9]; 0.11 wt % (4.02 mmol/L), no KI, 2205 b6, 4 mol/L HCl, 80° C., 3 hours) was 4 and the “Pitting Index” value ([9]; 0.1367 wt % (5.00 mmol/L), KI 0, 2205 (b5)) was 4. For the same molecule, the “Pitting Index” value ([9]; 0.1368 wt % (5.00 mmol/L) + KI 20 mmol/L, 2205 (b5)) was 0, the “Pitting Index” value ([9]; 0.1913 wt % (7.00 mmol/L), 2205 b6, 4 mol/L HCl, 80° C., 3 hours) was 3 and the “Pitting Index” value ([9]; 0.30 wt % (10.97 mmol/L), 2205 b6, 4 mol/L HCl, 80° C., 3 hours) was 0. For the same molecule, the “Pitting Index” value ([9]; 0.547 wt % (20.01 mmol/L), 2205 b6, 4 mol/L HCl, 80° C., 3 hours) was 0, the “inhibition performance compared at equivalent molar concentrations (in words)” value ([9]; 22Cr125, 4 mol/L HCl, 80° C., 3 hours) was “very similar to the known acid corrosion inhibitor NMQCl” and the “factor by which addition of 10 mM potassium iodide reduces the weight loss” value ([9]; 2205 (b6), NMTHQ 4.0-5.1 mmol/L) was 9.4.
